According to patent US4542137A, “Alkylaminodesoxy-1.4;3.6-dianhydrohexitol nitrates substituted by purine bases and pharmaceutical compositions” (priority 1980, dated 1985):

Tested on: mongrel dogs
Assay: circulatory pharmacological effectiveness on narcotised dogs, intravenous
Type: in vivo, dog
Conditions: dog i.v. ISDN/9c 1, 1d 0.5 mg/kg

With `CN(CCCn1cnc2c1c(=O)n(C)c(=O)n2C)[C@H]1CO[C@H]2[C@@H]1OC[C@@H]2O[N+](=O)[O-]` [Example 9c, 5-[N-Methyl-N-(3-theophyllin-7-ylpropyl)-amino]-5-desoxy-1.4;3.6-dianhydro-L-iditol 2-nitrate] the “APdiast: diastolic aorta pressure” value (2 min) was 58.1 mm.Hg, the “APsyst: systolic aorta pressure” value (2 min) was 105.0 mm.Hg and the “BFFem: blood flow in the A. femoralis referred to 20 kg body weight” value (shortened to “BFFem: blood flow”) (2 min) was 34.6 mL/min. The “HF: heart frequency” value (2 min) was 163.2, the “HLL: heart capacity left, referred to 20 kg body weight” value (shortened to “HLL: heart capacity left, referred”) (2 min) was 0.51 W and the “HLR: heart capacity right, referred to 20 kg body weight” value (“HLR: heart capacity right, referred” below) (2 min) was 67.6 mW. The “HZV: heart minute volume, referred to 20 kg body weight” value (shortened to “HZV: heart minute volume, referred”) (2 min) was 3.15 L/min, the “LVEDP: end diastolic pressure in the left ventricle” value (“LVEDP: end diastolic pressure” below) (2 min) was 3.60 mm.Hg and the “SV: beat volume, referred to 20 kg body weight” value (from here on “SV: beat volume, referred”) (2 min) was 20.0 mL. For the same compound, the “WAP: pulmonalis resistance, referred to 20 kg body weight” value (from here on “WAP: pulmonalis resistance, referred”) (2 min) was 0.30 U, the “WFem: moralis resistance, referred to 20 kg body weight” value (“WFem: moralis resistance, referred” for short) (2 min) was 0.33 KU and the “WTP: total peripheral resistance, referred to 20 kg body weight” value (shortened to “WTP: total peripheral resistance”) (2 min) was 3.07 U. The “dp/dt: rate of pressure increase in the left ventricle” value (“dp/dt: rate of pressure increase” below) (2 min) was 3045.0 mm.Hg/sec, the “APdiast: diastolic aorta pressure” value (5 min) was 79.7 mm.Hg and the “APsyst: systolic aorta pressure” value (5 min) was 126.6 mm.Hg. The “BFFem: blood flow” value (5 min) was 39.1 mL/min, the “HF: heart frequency” value (5 min) was 129.7 and the “HLL: heart capacity left, referred” value (5 min) was 0.56 W. For the same compound, the “HLR: heart capacity right, referred” value (5 min) was 66.9 mW, the “HZV: heart minute volume, referred” value (5 min) was 2.73 L/min and the “LVEDP: end diastolic pressure” value (5 min) was 4.64 mm.Hg. For the same compound, the “SV: beat volume, referred” value (5 min) was 21.1 mL, the “WAP: pulmonalis resistance, referred” value (5 min) was 0.33 U and the “WFem: moralis resistance, referred” value (5 min) was 0.37 KU. The “dp/dt: rate of pressure increase” value (5 min) was 2287.5 mm.Hg/sec, the “APdiast: diastolic aorta pressure” value (7 min) was 82.5 mm.Hg and the “APsyst: systolic aorta pressure” value (7 min) was 129.4 mm.Hg. The “BFFem: blood flow” value (7 min) was 42.5 mL/min, the “HF: heart frequency” value (7 min) was 123.2 and the “HLL: heart capacity left, referred” value (7 min) was 0.58 W. The “HLR: heart capacity right, referred” value (7 min) was 64.2 mW, the “HZV: heart minute volume, referred” value (7 min) was 2.75 L/min and the “LVEDP: end diastolic pressure” value (7 min) was 4.92 mm.Hg. For the same compound, the “SV: beat volume, referred” value (7 min) was 22.4 mL, the “WFem: moralis resistance, referred” value (7 min) was 0.34 KU and the “WTP: total peripheral resistance” value (7 min) was 4.77 U. For the same compound, the “dp/dt: rate of pressure increase” value (7 min) was 2325.0 mm.Hg/sec, the “APdiast: diastolic aorta pressure” value (10 min) was 81.6 mm.Hg and the “APsyst: systolic aorta pressure” value (10 min) was 127.5 mm.Hg. The “HF: heart frequency” value (10 min) was 120.5, the “HLL: heart capacity left, referred” value (10 min) was 0.57 W and the “HLR: heart capacity right, referred” value (10 min) was 68.8 mW. The “HZV: heart minute volume, referred” value (10 min) was 2.76 L/min, the “LVEDP: end diastolic pressure” value (10 min) was 4.92 mm.Hg and the “SV: beat volume, referred” value (10 min) was 23.0 mL. The “WAP: pulmonalis resistance, referred” value (10 min) was 0.32 U, the “WFem: moralis resistance, referred” value (10 min) was 0.32 KU and the “WTP: total peripheral resistance” value (10 min) was 4.68 U. The “APdiast: diastolic aorta pressure” value (15 min) was 81.6 mm.Hg, the “APsyst: systolic aorta pressure” value (15 min) was 128.4 mm.Hg and the “BFFem: blood flow” value (15 min) was 43.4 mL/min. For the same compound, the “HF: heart frequency” value (15 min) was 115.2, the “HLL: heart capacity left, referred” value (15 min) was 0.57 W and the “HLR: heart capacity right, referred” value (15 min) was 63.6 mW. The “HZV: heart minute volume, referred” value (15 min) was 2.77 L/min, the “LVEDP: end diastolic pressure” value (15 min) was 5.20 mm.Hg and the “SV: beat volume, referred” value (15 min) was 24.2 mL. The “WAP: pulmonalis resistance, referred” value (15 min) was 0.30 U, the “WFem: moralis resistance, referred” value (15 min) was 0.31 KU and the “WTP: total peripheral resistance” value (15 min) was 4.65 U. For the same compound, the “dp/dt: rate of pressure increase” value (15 min) was 2250.0 mm.Hg/sec, the “APdiast: diastolic aorta pressure” value (20 min) was 82.5 mm.Hg and the “APsyst: systolic aorta pressure” value (20 min) was 128.4 mm.Hg. The “BFFem: blood flow” value (20 min) was 44.2 mL/min, the “HF: heart frequency” value (20 min) was 114.5 and the “HLL: heart capacity left, referred” value (20 min) was 0.55 W. For the same compound, the “HLR: heart capacity right, referred” value (20 min) was 63.1 mW, the “HZV: heart minute volume, referred” value (20 min) was 2.65 L/min and the “LVEDP: end diastolic pressure” value (20 min) was 5.48 mm.Hg. The “SV: beat volume, referred” value (20 min) was 23.3 mL, the “WAP: pulmonalis resistance, referred” value (20 min) was 0.30 U and the “WFem: moralis resistance, referred” value (20 min) was 0.31 KU. The “WTP: total peripheral resistance” value (20 min) was 4.90 U, the “dp/dt: rate of pressure increase” value (20 min) was 2221.9 mm.Hg/sec and the “APdiast: diastolic aorta pressure” value (25 min) was 83.4 mm.Hg. For the same compound, the “APsyst: systolic aorta pressure” value (25 min) was 131.2 mm.Hg, the “BFFem: blood flow” value (25 min) was 41.3 mL/min and the “HLL: heart capacity left, referred” value (25 min) was 0.56 W. The “HLR: heart capacity right, referred” value (25 min) was 60.5 mW, the “HZV: heart minute volume, referred” value (25 min) was 2.65 L/min and the “LVEDP: end diastolic pressure” value (25 min) was 5.62 mm.Hg. The “SV: beat volume, referred” value (25 min) was 23.7 mL, the “WAP: pulmonalis resistance, referred” value (25 min) was 0.27 U and the “WFem: moralis resistance, referred” value (25 min) was 0.33 KU. For the same compound, the “WTP: total peripheral resistance” value (25 min) was 5.00 U, the “dp/dt: rate of pressure increase” value (25 min) was 2221.9 mm.Hg/sec and the “APdiast: diastolic aorta pressure” value (30 min) was 81.6 mm.Hg. The “APsyst: systolic aorta pressure” value (30 min) was 134.1 mm.Hg, the “BFFem: blood flow” value (30 min) was 44.2 mL/min and the “HF: heart frequency” value (30 min) was 111.5. The “HLL: heart capacity left, referred” value (30 min) was 0.57 W, the “HLR: heart capacity right, referred” value (30 min) was 60.5 mW and the “HZV: heart minute volume, referred” value (30 min) was 2.68 L/min. For the same compound, the “LVEDP: end diastolic pressure” value (30 min) was 5.62 mm.Hg, the “SV: beat volume, referred” value (30 min) was 24.2 mL and the “WFem: moralis resistance, referred” value (30 min) was 0.31 KU. The “WTP: total peripheral resistance” value (30 min) was 4.87 U, the “dp/dt: rate of pressure increase” value (30 min) was 2221.9 mm.Hg/sec and the “APdiast: diastolic aorta pressure” value (40 min) was 86.2 mm.Hg. For the same compound, the “APsyst: systolic aorta pressure” value (40 min) was 136.9 mm.Hg.
